In patent publication US5852011A, “Benzimidazole derivatives” (Mitsui Chemicals, Inc., priority 1994, dated 1998):
Where a name gives a salt, the structure may show the parent alone. Read-outs that look alike come from different tables or passages of the source.

Tested on: mouse B16 melanoma cells
Assay: In vitro inhibition of proliferation of tumored cells, mouse B16 melanoma (Test 2)
Format: cell-based
Settings: for IC50: Mus musculus, B16, 72 h, read-out: 50% Inhibition
Description: A description will next be made of antitumor activities of these compounds. Their antitumor activities were determined by measuring their in vitro inhibition of proliferation of tumored cells. Namely, mouse B16 melanoma cells were spread over a 96-well culture plate. One day later, each drug was applied. The melanoma cells were then incubated for 3 days in 5% CO2 at 37° C. Following the method reported in Cancer Res., 48, 589-601(1988), the concentration of the drug required to induce 50% inhibition on the proliferation was determined. As a comparative example, the results obtained from the application of distamycin are also shown.

[1] = 3 days in 5% CO2 at 37° C., 96-well plate

Cn1cc(NC(=O)CC[S+](C)C)cc1-c1nc2cc(C(=O)Nc3ccc(N(CCCl)CCCl)c(F)c3)ccc2[nH]1 [1076 (Cl' salt), 2-[N-[1-Methyl-2-[5-[N-[3-fluoro-4-[N,N-bis(2-chloroethyl)amino]phenyl]]carbamoyl]-1H-benzimidazol-2-ylpyrrol-4-yl]carbamoylethyl-dimethylsulfonium chloride] was tested, and the “50% Inhibition” value [1] was 0.45 µg/mL.
In the case of Cn1cc(NC(=O)CCc2ccc(N(CCCl)CCCl)cc2)cc1-c1nc2cc(C(=O)NCCC(=N)N)ccc2[nH]1 [Compound 3, 1H-2-[4-[3-[4-[N,N-Bis(2-chloroethyl)amino]phenyl]propionylamino]-1-methylpyrrol-2-yl]benzimidazole-5-[N-(2-amidinoethyl)]carboxamide hydrochloride], the “50% Inhibition” value [1] is reported as 0.019 µg/mL.
With Cn1cc(NC(=O)c2ccc(CN(CCCl)CCCl)cc2)cc1-c1nc2cc(C(=O)NCCC(=N)N)ccc2[nH]1 [Compound 14, 1H-2-[4-[4-[N,N-Bis(2-chloroethyl)aminomethyl]benzoylamino]-1-methylpyrrol-2-yl]benzimidazole-5-(N-(2-amidinoethyl)]carboxamide hydrochloride] the “50% Inhibition” value [1] was 0.57 µg/mL.
With Cn1cc(NC(=O)c2cccc(N(CCCl)CCCl)c2)cc1-c1nc2cc(C(=O)NCCC(=N)N)ccc2[nH]1 [Compound 15, 1H-2-[4-[3-[N,N-bis(2-chloroethyl)amino]benzoylamino]-1-methylpyrrol-2-yl]benzimidazole-5-[N-(2-amidinoethyl)]carboxamide hydrochloride] the “50% Inhibition” value [1] was 0.057 µg/mL.
Cn1cc(NC(=O)CCCCCBr)cc1-c1nc2cc(C(=O)NCCC(=N)N)ccc2[nH]1 [Compound 16, hydrochloride] gave an IC50 [1] of 0.6 µg/mL.
With Cn1cc(NC(=O)c2ccc(N(CCCl)CCCl)cc2)cc1-c1nc2cc(C(=O)NCCN)ccc2[nH]1 [Compound 129, 1H-2-[4-[4-[N,N-Bis(2-chloroethyl)amino]benzoylamino]-1-methylpyrrol-2-yl]benzimidazole-5-[N-(2-aminoethyl)]carboxamide hydrochloride] the “50% Inhibition” value [1] was 0.18 µg/mL.
For Cn1cc(NC(=O)c2ccc(N(CCCl)CCCl)cc2)cc1-c1nc2cc(C(=O)NCc3cccnc3)ccc2[nH]1 [Compound 223, 1H-2-[4-[4-[N,N-Bis(2-chloroethyl)amino]benzoylamino]-1-methylpyrrol-2-yl]benzimidazole-5-[N-(3-picolyl)]carboxamide hydrochloride], the “50% Inhibition” value [1] was 1.1 µg/mL.
In the case of Cn1cc(NC(=O)c2ccc(N(CCCl)CCCl)cc2)cc1-c1nc2cc(C(=O)NCc3ccc[n+](C)c3)ccc2[nH]1 [Compound 247, 3-[[1H-2-[4-[4-[N,N-Bis(2-chloroethyl)amino]-benzoylamino]-1-methylpyrrol-2-yl]benzimidazole-5-carboxamido]methyl]-1-methylpyridinium chloride], the “50% Inhibition” value [1] is reported as 2.6 µg/mL.
In the case of Cn1cc(NC(=O)c2ccc(N(CCBr)CCBr)cc2)cc1-c1nc2cc(C(=O)NCCC(=N)N)ccc2[nH]1 [Compound 260, 1H-2-[4-[4-[N,N-Bis(2-bromoethyl)amino]benzoylamino]-1-methylpyrrol-2-yl]benzimidazole-5-[N-(2-amidinoethyl)]carboxamide hydrochloride], the “50% Inhibition” value [1] is reported as 0.034 µg/mL.
With Cn1cc(NC(=O)c2ccccc2)cc1-c1nc2cc(C(=O)NCCC(=N)N)ccc2[nH]1 [Compound 326, 1H-2-(4-Benzoylamino-1-methylpyrrol-2-yl)benzimidazole-5-[N-(2-amidinoethyl)]carboxamide hydrochloride] the IC50 [1] was 12 µg/mL.
In the case of CCCCNC(=O)c1ccc2[nH]c(-c3cc(NC(=O)c4ccc(N(CCCl)CCCl)cc4)cn3C)nc2c1 [Compound 336, 1H-2-[4-[4-[N,N-Bis(2-chloroethyl)amino]benzoylamino]-1-methylpyrrol-2-yl]benzimidazole-5-(N-butyl)carboxamide], the “50% Inhibition” value [1] is reported as 0.24 µg/mL.
With N=C(N)CCNC(=O)c1ccc2[nH]c(-c3csc(NC(=O)CCCc4ccc(N(CCCl)CCCl)cc4)c3)nc2c1 [Compound 424, 1H-2-[2-[4-[4-[N,N-Bis(2-chloroethyl)amino]phenyl]butyrylamino]thiophen-4-yl]benzimidazole-5-[N-(2-amidinoethyl)]carboxamide hydrochloride] the “50% Inhibition” value [1] was 0.08 µg/mL.
For N=C(N)CCNC(=O)c1ccc2[nH]c(-c3csc(NC(=O)c4ccccc4)c3)nc2c1 [Compound 438, 1H-2-(2-Benzoylaminothiophen-4-yl)benzimidazole-5-[N-(2-amidinoethyl)]carboxamide hydrochloride], the IC50 [1] was 42.8 µg/mL.
With Cn1cc(NC(=O)CNC(=N)N)cc1-c1nc2cc(C(=O)NCCCc3ccc(N(CCCl)CCCl)cc3)ccc2[nH]1 [Compound 1004, 1H-2-[4-(2-Guanidinoacetylamino)-1-methylpyrrol-2-yl]benzimidazole-5-[N-[3-[4-[N,N-bis(2-chloroethyl)amino]phenyl]propyl]]carboxamide hydrochloride] the “50% Inhibition” value [1] was 0.047 µg/mL.
In the case of CN(C)CCNC(=O)c1cc(N(CCCl)CCCl)ccc1NC(=O)c1ccc2[nH]c(-c3cc(NC(=O)CNC(=N)N)cn3C)nc2c1 [Compound 1042, 1H-2-[1-Methyl-4-(guanidinoacetylamino)pyrrol-2-yl]benzimidazole-5-[N-[2-[N-[(N,N-dimethylamino)ethyl]carboxamido]-4-[N,N-bis(2-chloroethyl)amino]phenyl]]carboxamide dihydrochloride], the “50% Inhibition” value [1] is reported as 3.49 µg/mL.
Cn1cc(NC(=O)CNC(=N)N)cc1-c1nc2cc(C(=O)Nc3cccc(N(CCCl)CCCl)c3)ccc2[nH]1 [Compound 1047, 1H-2-[1-Methyl-4-(guanidinoacetylamino)pyrrol-2-yl]benzimidazole-5-[N-[3-[N,N-bis(2-chloroethyl)amino]phenyl]]carboxamide dihydrochloride] was tested, and the “50% Inhibition” value [1] was 0.0946 µg/mL.
CCN(CCCl)c1ccc(NC(=O)c2ccc3[nH]c(-c4cc(NC(=O)CNC(=N)N)cn4C)nc3c2)cc1 [Compound 1048, 1H-2-[1-Methyl-4-(2-guanidinoacetylamino)pyrrol-2-yl]benzimidazol-5-[N-[4-[N-ethyl,N-(2-chloroethyl)amino]phenyl]]carboxamide dihydrochloride] gave an IC50 of 5.58 µg/mL.
Compound CCN(CCCl)c1cccc(NC(=O)c2ccc3[nH]c(-c4cc(NC(=O)CNC(=N)N)cn4C)nc3c2)c1 [Compound 1049, 1H-2-[1-Methyl-4-(guanidinoacetylamino)pyrrol-2-yl]benzimidazol-5-[N-[3-[N-ethyl,N-(2-chloroethyl)amino]phenyl]]carboxamide hydrochloride] has an IC50 of 0.274 µg/mL.
Cn1cc(NC(=O)CC[S+](C)C)cc1-c1nc2cc(C(=O)Nc3ccc(N(CCCl)CCCl)c(Cl)c3)ccc2[nH]1 [Compound 1072, 2-[N-[1-Methyl-2-[5-[N-[3-chloro-4-[N,N-bis(2-chloroethyl)amino]phenyl]]carbamoyl]-1H-benzimidazol-2-yl]pyrrol-4-yl]carbamoylethyl-dimethylsulfonium chloride] was tested, and the “50% Inhibition” value [1] was 0.51 µg/mL.
In the case of Cn1cc(NC(=O)CC[S+](C)C)cc1-c1nc2cc(C(=O)Nc3ccc(N(CCCl)CCCl)c(C(F)(F)F)c3)ccc2[nH]1 [Compound 1077, 2-[N-[1-Methyl-2-[5-[N-[3-trifluoromethyl-4-[N,N-bis(2-chloroethyl)amino]phenyl]]carbamoyl]-1H-benzimidazol-2-yl]pyrrol-4-yl]carbamoylethyl-dimethylsulfonium chloride], the “50% Inhibition” value [1] is reported as 0.29 µg/mL.
For Cc1cc(NC(=O)c2ccc3[nH]c(-c4cc(NC(=O)CCCN(C)C)cn4C)nc3c2)ccc1N(CCCl)CCCl [Compound 1260, 1H-2-[1-Methyl-4-[4-(N,N-dimethylamino)butyrylamino]pyrrol-2-yl]benzimidazole-5-[N-[3-methyl-4-[N,N-bis(2-chloroethyl)amino]phenyl]]carboxamide dihydrochloride], the “50% Inhibition” value [1] was 3.1 µg/mL.
With Cn1cc(NC(=O)c2ccc[nH]2)cc1-c1nc2cc(C(=O)Nc3ccc(N(CCCl)CCCl)cc3)ccc2[nH]1 [Compound 1480, 1H-2-[1-Methyl-4-(2-pyrrolcarboxamido)pyrrol-2-yl]benzimidazole-5-[N-[4-[N,N-bis(2-chloroethyl)amino]phenyl]]carboxamide hydrochloride] the “50% Inhibition” value [1] was 0.16 µg/mL.
For Cn1cc(NC(=O)CCCN)cc1-c1nc2cc(C(=O)Nc3ccc(N(CCCl)CCCl)cc3)ccc2[nH]1 [Compound 1488, 1H-2-[4-(4-aminobuturylamino)-1-methylpyrrol-2-yl]benzimidazole-5-[N-[4-[N,N-bis(2-chloroethyl)amino]phenyl]]carboxamide], the “50% Inhibition” value [1] was 2.85 µg/mL.
With CSCCC(=O)Nc1cc(-c2nc3cc(C(=O)Nc4ccc(N(CCCl)CCCl)cc4)ccc3[nH]2)n(C)c1 [Compound 1520, 1H-2-[1-Methyl-4-[3-(methylthio)propionylamino]pyrrol-2-yl]benzimidazole-5-[N-[4-[N,N-bis(2-chloroethyl)amino]phenyl]]carboxamide] the “50% Inhibition” value [1] was 0.33 µg/mL.
CSCCC(=O)Nc1cc(-c2nc3cc(C(=O)Nc4ccc(N(CCCl)CCCl)c(C)c4)ccc3[nH]2)n(C)c1 [Compound 1524, 1H-2-[1-Methyl-4-[3-(methylthio)propionylamino]pyrrol-2-yl]benzimidazole-5-[N-[3-methyl-4-[N,N-bis(2-chloroethyl)amino]phenyl]]carboxamide] was tested, and the “50% Inhibition” value [1] was 0.6 µg/mL.
With CSCCC(=O)Nc1cc(-c2nc3cc(C(=O)Nc4ccc(N(CCCl)CCCl)c(F)c4)ccc3[nH]2)n(C)c1 [Compound 1528, 1H-2-[1-Methyl-4-[3-(methylthio)propionylamino]pyrrol-2-yl]benzimidazole-5-[N-[3-fluoro-4-[N,N-bis(2-chloroethyl)amino]phenyl]]carboxamide] the “50% Inhibition” value [1] was 0.22 µg/mL.
